Values quoted from earlier work, collected in patent EP0116853A1, “Pyridazinones, processes for preparing them, therapeutical compositions containing these compounds and their use” (BASF Aktiengesellschaft, priority 1983, dated 1984).

Conditions: in contrast to the corresponding 4,5-dihydro compound

Q: With `CC(=O)Nc1ccc(-c2n[nH]c(=O)cc2C)cc1` [6-(p-Acetylamino-phenyl)-5-methyl-3(2H)-pyridazinon] as the compound, how does the “blutdrucksenkende Wirkung” value read?
A: keine blutdrucksenkende Wirkung
